Test results as given in PMC9221290, “Alkaloids of Dicranostigma franchetianum (Papaveraceae) and Berberine Derivatives as a New Class of Antimycobacterial Agents” (Biomolecules, 2022).

test system: HepG2 cells; assay: not given; details: not given

Question: For `COc1ccc2cc3[n+](cc2c1OCc1ccc(Cl)c(Cl)c1)CCc1cc2c(cc1-3)OCO2` [16k, 9-O-(3,4-dichlorbenzyl)berberine chloride], which “SI (selectivity index)” value is on record?
Answer: The value was 4.55.

test system: not listed separately; assay: in vitro; details: human, % of cell viability compared to control, 1. measurement, HepG2, 1 µM

Question: Which viability at 1 µM does the source give for `COc1ccc2cc3[n+](cc2c1OCc1ccc(Cl)c(Cl)c1)CCc1cc2c(cc1-3)OCO2` [16k, 9-O-(3,4-dichlorbenzyl)berberine chloride] here?
Answer: The viability at 1 µM was 97.6%.

same assay, conditions: human, % of cell viability compared to control, 1. measurement, HepG2, 5 µM

Question: With `COc1ccc2cc3[n+](cc2c1OCc1ccc(Cl)c(Cl)c1)CCc1cc2c(cc1-3)OCO2` [16k, 9-O-(3,4-dichlorbenzyl)berberine chloride] as the molecule, how does the viability at 5 µM read?
Answer: Its viability at 5 µM is 66.5%.

same assay, conditions: human, % of cell viability compared to control, 1. measurement, HepG2, 10 µM

Question: Which viability at 10 µM does the source give for `COc1ccc2cc3[n+](cc2c1OCc1ccc(Cl)c(Cl)c1)CCc1cc2c(cc1-3)OCO2` [16k, 9-O-(3,4-dichlorbenzyl)berberine chloride] here?
Answer: Its viability at 10 µM is 50.4%.

same assay, conditions: human, % of cell viability compared to control, 1. measurement, HepG2, 25 µM

Question: With `COc1ccc2cc3[n+](cc2c1OCc1ccc(Cl)c(Cl)c1)CCc1cc2c(cc1-3)OCO2` [16k, 9-O-(3,4-dichlorbenzyl)berberine chloride] as the molecule, how does the viability at 25 µM read?
Answer: Its viability at 25 µM is 43.4%.

same assay, conditions: human, % of cell viability compared to control, 1. measurement, HepG2, 50 µM

Question: Which viability at 50 µM does the source give for `COc1ccc2cc3[n+](cc2c1OCc1ccc(Cl)c(Cl)c1)CCc1cc2c(cc1-3)OCO2` [16k, 9-O-(3,4-dichlorbenzyl)berberine chloride] here?
Answer: The viability at 50 µM was 35%.

same assay, conditions: human, % of cell viability compared to control, 1. measurement, HepG2, 75 µM

Question: With `COc1ccc2cc3[n+](cc2c1OCc1ccc(Cl)c(Cl)c1)CCc1cc2c(cc1-3)OCO2` [16k, 9-O-(3,4-dichlorbenzyl)berberine chloride] as the molecule, how does the viability at 75 µM read?
Answer: The viability at 75 µM was 13.2%.

same assay, conditions: human, % of cell viability compared to control, 1. measurement, HepG2, 100 µM

Question: With `COc1ccc2cc3[n+](cc2c1OCc1ccc(Cl)c(Cl)c1)CCc1cc2c(cc1-3)OCO2` [16k, 9-O-(3,4-dichlorbenzyl)berberine chloride] as the molecule, how does the viability at 100 µM read?
Answer: Its viability at 100 µM is 2.33%.

same assay, conditions: human, % of cell viability compared to control, 2. measurement, HepG2, 1 µM

Question: With `COc1ccc2cc3[n+](cc2c1OCc1ccc(Cl)c(Cl)c1)CCc1cc2c(cc1-3)OCO2` [16k, 9-O-(3,4-dichlorbenzyl)berberine chloride] as the molecule, how does the viability at 1 µM read?
Answer: The viability at 1 µM was 97.8%.

same assay, conditions: human, % of cell viability compared to control, 2. measurement, HepG2, 5 µM

Question: For `COc1ccc2cc3[n+](cc2c1OCc1ccc(Cl)c(Cl)c1)CCc1cc2c(cc1-3)OCO2` [16k, 9-O-(3,4-dichlorbenzyl)berberine chloride], which viability at 5 µM is on record?
Answer: Its viability at 5 µM is 79.2%.

same assay, conditions: human, % of cell viability compared to control, 2. measurement, HepG2, 10 µM

Question: With `COc1ccc2cc3[n+](cc2c1OCc1ccc(Cl)c(Cl)c1)CCc1cc2c(cc1-3)OCO2` [16k, 9-O-(3,4-dichlorbenzyl)berberine chloride] as the molecule, how does the viability at 10 µM read?
Answer: Its viability at 10 µM is 46.7%.

same assay, conditions: human, % of cell viability compared to control, 2. measurement, HepG2, 25 µM

Question: For `COc1ccc2cc3[n+](cc2c1OCc1ccc(Cl)c(Cl)c1)CCc1cc2c(cc1-3)OCO2` [16k, 9-O-(3,4-dichlorbenzyl)berberine chloride], which viability at 25 µM is on record?
Answer: The viability at 25 µM was 35.5%.

same assay, conditions: human, % of cell viability compared to control, 2. measurement, HepG2, 50 µM

Question: For `COc1ccc2cc3[n+](cc2c1OCc1ccc(Cl)c(Cl)c1)CCc1cc2c(cc1-3)OCO2` [16k, 9-O-(3,4-dichlorbenzyl)berberine chloride], which viability at 50 µM is on record?
Answer: The viability at 50 µM was 35%.

same assay, conditions: human, % of cell viability compared to control, 2. measurement, HepG2, 75 µM

Question: Which viability at 75 µM does the source give for `COc1ccc2cc3[n+](cc2c1OCc1ccc(Cl)c(Cl)c1)CCc1cc2c(cc1-3)OCO2` [16k, 9-O-(3,4-dichlorbenzyl)berberine chloride] here?
Answer: Its viability at 75 µM is 28.2%.

same assay, conditions: human, % of cell viability compared to control, 2. measurement, HepG2, 100 µM

Question: With `COc1ccc2cc3[n+](cc2c1OCc1ccc(Cl)c(Cl)c1)CCc1cc2c(cc1-3)OCO2` [16k, 9-O-(3,4-dichlorbenzyl)berberine chloride] as the molecule, how does the viability at 100 µM read?
Answer: The viability at 100 µM was 4.02%.

same assay, conditions: human, % of cell viability compared to control, 3. measurement, HepG2, 1 µM

Question: With `COc1ccc2cc3[n+](cc2c1OCc1ccc(Cl)c(Cl)c1)CCc1cc2c(cc1-3)OCO2` [16k, 9-O-(3,4-dichlorbenzyl)berberine chloride] as the molecule, how does the viability at 1 µM read?
Answer: Its viability at 1 µM is 85.7%.

same assay, conditions: human, % of cell viability compared to control, 3. measurement, HepG2, 5 µM

Question: For `COc1ccc2cc3[n+](cc2c1OCc1ccc(Cl)c(Cl)c1)CCc1cc2c(cc1-3)OCO2` [16k, 9-O-(3,4-dichlorbenzyl)berberine chloride], which viability at 5 µM is on record?
Answer: Its viability at 5 µM is 67%.

same assay, conditions: human, % of cell viability compared to control, 3. measurement, HepG2, 10 µM

Question: With `COc1ccc2cc3[n+](cc2c1OCc1ccc(Cl)c(Cl)c1)CCc1cc2c(cc1-3)OCO2` [16k, 9-O-(3,4-dichlorbenzyl)berberine chloride] as the molecule, how does the viability at 10 µM read?
Answer: The viability at 10 µM was 46.9%.

same assay, conditions: human, % of cell viability compared to control, 3. measurement, HepG2, 25 µM

Question: For `COc1ccc2cc3[n+](cc2c1OCc1ccc(Cl)c(Cl)c1)CCc1cc2c(cc1-3)OCO2` [16k, 9-O-(3,4-dichlorbenzyl)berberine chloride], which viability at 25 µM is on record?
Answer: Its viability at 25 µM is 43.6%.

same assay, conditions: human, % of cell viability compared to control, 3. measurement, HepG2, 50 µM

Question: Which viability at 50 µM does the source give for `COc1ccc2cc3[n+](cc2c1OCc1ccc(Cl)c(Cl)c1)CCc1cc2c(cc1-3)OCO2` [16k, 9-O-(3,4-dichlorbenzyl)berberine chloride] here?
Answer: The viability at 50 µM was 11.7%.

same assay, conditions: human, % of cell viability compared to control, 3. measurement, HepG2, 75 µM

Question: For `COc1ccc2cc3[n+](cc2c1OCc1ccc(Cl)c(Cl)c1)CCc1cc2c(cc1-3)OCO2` [16k, 9-O-(3,4-dichlorbenzyl)berberine chloride], which viability at 75 µM is on record?
Answer: Its viability at 75 µM is 0.77%.

same assay, conditions: human, % of cell viability compared to control, 3. measurement, HepG2, 100 µM

Question: For `COc1ccc2cc3[n+](cc2c1OCc1ccc(Cl)c(Cl)c1)CCc1cc2c(cc1-3)OCO2` [16k, 9-O-(3,4-dichlorbenzyl)berberine chloride], which viability at 100 µM is on record?
Answer: Its viability at 100 µM is 0.81%.

test system: Mycobacterium kansasii DSM 44162 (ATCC 12478); assay: Antimycobacterial microdilution broth assay (resazurin), M. kansasii; format: cell-based; details: Mycobacterium kansasii, 96 h, read-out: MIC M. kansasii, microdilution broth, resazurin, 96 h

Question: Which MIC does the source give for `COc1ccc2cc3[n+](cc2c1OCc1ccc(Cl)c(Cl)c1)CCc1cc2c(cc1-3)OCO2` [16k, 9-O-(3,4-dichlorbenzyl)berberine chloride] here?
Answer: The MIC was 6.25 µg/mL.

test system: Mtb H37Ra ITM-M006710 (ATCC 9431); assay: Antimycobacterial microdilution broth assay (resazurin), Mtb H37Ra; format: cell-based, Mycobacterium tuberculosis; details: Mycobacterium tuberculosis, 120 h, microdilution broth, resazurin, 120 h; read-out: MIC Mtb H37Ra

Question: For `COc1ccc2cc3[n+](cc2c1OCc1ccc(Cl)c(Cl)c1)CCc1cc2c(cc1-3)OCO2` [16k, 9-O-(3,4-dichlorbenzyl)berberine chloride], which MIC is on record?
Answer: Its MIC is 1.56 µg/mL.

same assay, conditions: Mycobacterium tuberculosis, calculated from MIC (µg/mL) and MW; read-out: MIC Mtb H37Ra

Question: For `COc1ccc2cc3[n+](cc2c1OCc1ccc(Cl)c(Cl)c1)CCc1cc2c(cc1-3)OCO2` [16k, 9-O-(3,4-dichlorbenzyl)berberine chloride], which MIC is on record?
Answer: Its MIC is 2.78 µM.

test system: Mycolicibacterium aurum DSM 43999 (ATCC 23366); assay: Antimycobacterial microdilution broth assay (resazurin), M. aurum; format: cell-based; details: Mycolicibacterium aurum, 72 h, read-out: MIC M. aurum, microdilution broth, resazurin, 72 h

Question: For `COc1ccc2cc3[n+](cc2c1OCc1ccc(Cl)c(Cl)c1)CCc1cc2c(cc1-3)OCO2` [16k, 9-O-(3,4-dichlorbenzyl)berberine chloride], which MIC is on record?
Answer: Its MIC is 1.56 µg/mL.

test system: Mycobacterium avium DSM 44156 (ATCC 25291); assay: Antimycobacterial microdilution broth assay (resazurin), M. avium; format: cell-based; details: Mycobacterium avium, 96 h, read-out: MIC M. avium, microdilution broth, resazurin, 96 h

Question: Which MIC does the source give for `COc1ccc2cc3[n+](cc2c1OCc1ccc(Cl)c(Cl)c1)CCc1cc2c(cc1-3)OCO2` [16k, 9-O-(3,4-dichlorbenzyl)berberine chloride] here?
Answer: The MIC was 1.56 µg/mL.

test system: Mycolicibacterium smegmatis DSM 43465 (ATCC 607); assay: Antimycobacterial microdilution broth assay (resazurin), M. smegmatis; format: cell-based; details: Mycolicibacterium smegmatis, 48 h, read-out: MIC M. smegmatis, microdilution broth, resazurin, 48 h

Question: Which MIC does the source give for `COc1ccc2cc3[n+](cc2c1OCc1ccc(Cl)c(Cl)c1)CCc1cc2c(cc1-3)OCO2` [16k, 9-O-(3,4-dichlorbenzyl)berberine chloride] here?
Answer: The MIC was 1.56 µg/mL.

test system: HepG2 cells; assay: cells; details: Homo sapiens, HepG2, 24 h, read-out: HepG2 IC50, 1. measurement, MTT, 24 h, single measurement 1

Question: With `COc1ccc2cc3[n+](cc2c1OCc1ccc(Cl)c(Cl)c1)CCc1cc2c(cc1-3)OCO2` [16k, 9-O-(3,4-dichlorbenzyl)berberine chloride] as the molecule, how does the IC50 read?
Answer: Its IC50 is 13.3 µM.

same assay, conditions: Homo sapiens, HepG2, 24 h, read-out: HepG2 IC50, 2. measurement, MTT, 24 h, single measurement 2

Question: For `COc1ccc2cc3[n+](cc2c1OCc1ccc(Cl)c(Cl)c1)CCc1cc2c(cc1-3)OCO2` [16k, 9-O-(3,4-dichlorbenzyl)berberine chloride], which IC50 is on record?
Answer: The IC50 was 14.8 µM.

same assay, conditions: Homo sapiens, HepG2, 24 h, read-out: HepG2 IC50, 3. measurement, MTT, 24 h, single measurement 3

Question: With `COc1ccc2cc3[n+](cc2c1OCc1ccc(Cl)c(Cl)c1)CCc1cc2c(cc1-3)OCO2` [16k, 9-O-(3,4-dichlorbenzyl)berberine chloride] as the molecule, how does the IC50 read?
Answer: The IC50 was 9.9 µM.

same assay, conditions: Homo sapiens, HepG2, 24 h, read-out: HepG2 IC50, MTT, 24 h incubation

Question: With `COc1ccc2cc3[n+](cc2c1OCc1ccc(Cl)c(Cl)c1)CCc1cc2c(cc1-3)OCO2` [16k, 9-O-(3,4-dichlorbenzyl)berberine chloride] as the molecule, how does the IC50 read?
Answer: Its IC50 is 12.7 ± 2.51 µM.
